According to publication PMC7883726 (Acta Pharmaceutica Sinica. B, 2021):
Where two headings read alike, the source gives them in different places.

Biological target: SARS-CoV-2 RdRp (Severe acute respiratory syndrome coronavirus 2, UniProt P0DTD1)
Test: biochemical
Format: binding
Details: for koff: read-out: kdis
[1] = BLI, 1:1 binding model, compounds 3.125–100 μmol/L
[2] = KD, BLI, 1:1 binding model, compounds 3.125–100 μmol/L

SMILES	Kd	kdis	kon	Kd [2]	koff	also measured
Cc1ccc(Oc2nc3cc(-c4ccc(-c5ccccc5)cc4)c(Cl)cc3[nH]2)cc1C(=O)O [RAI-S-45, MK-3903]	220 ± 19.4 µM	0.0665 s⁻¹	302 M⁻¹ s⁻¹			
C[C@@H]1O[C@@H](OC[C@H]2O[C@@H](Oc3cc(O)c4c(=O)cc(-c5ccc(O)cc5)oc4c3)[C@H](O[C@@H]3O[C@@H](C)[C@H](O)[C@@H](O)[C@H]3O)[C@@H](O)[C@@H]2O)[C@H](O)[C@H](O)[C@H]1O [RAI-S-38, Ligustroflavone]						KD [1]: did not detect the binding
O=C(O)CCc1cc(C(=O)c2ccc(OC3CCCC3)cc2O)ccc1OCc1ccc2c(=O)[nH]oc2c1 [RAI-S-47, T-5224]	38.7 ± 1.63 µM	0.00774 s⁻¹	200 M⁻¹ s⁻¹			
O=C(Nc1nc(-c2ccc(O)c(O)c2)c(-c2ccccc2)s1)c1ccc(O)c(O)c1 [RAI-S-34, COH29]	> 1000 µM	0.189 s⁻¹	8.10 M⁻¹ s⁻¹			
C[C@@H]1O[C@@H](OC[C@H]2O[C@@H](OCCc3ccc(O)c(O)c3)[C@H](O)[C@@H](O)[C@@H]2OC(=O)/C=C/c2ccc(O)c(O)c2)[C@H](O)[C@H](O)[C@H]1O [RAI-S-36, Forsythoside A]						Kd [1]: < 50 µM; Kd (BLI, 1:1 binding model, compounds 3.125–100 μmol/L, listed as 36): 1.16 ± 0.44 µM; kon (BLI, association rate constant): 137 M⁻¹ s⁻¹; kdis (BLI, dissociation rate constant): 0.000159 s⁻¹
C[C@@H]1O[C@@H](O[C@@H]2[C@@H](O)[C@H](OCCc3ccc(O)c(O)c3)O[C@H](CO)[C@H]2OC(=O)/C=C/c2ccc(O)c(O)c2)[C@H](O)[C@H](O)[C@H]1O [RAI-S-11, Verbascoside]			108 M⁻¹ s⁻¹	0.84 ± 0.85 µM	9.05e-05 s⁻¹	
CC1(C)CC[C@]2(C(=O)O)CC[C@]3(C)C(=CC[C@@H]4[C@@]5(C)CCC(=O)C(C)(C)[C@@H]5CC[C@]43C)[C@@H]2C1 [RAI-S-35, Oleanonic Acid]			98.4 M⁻¹ s⁻¹	171 ± 35.9 µM	0.0168 s⁻¹	
COc1cc(C(=O)NS(=O)(=O)c2ccccc2C)ccc1Cc1cn(C)c2ccc(NC(=O)OC3CCCC3)cc12 [RAI-S-19, Zafirlukast]			8.43 M⁻¹ s⁻¹	> 1000 µM	4.99 s⁻¹	
O=C(O[C@@H]1O[C@@H]2COC(=O)c3cc(O)c(O)c(O)c3-c3c(cc(O)c(O)c3O)C(=O)O[C@H]([C@H]1O)[C@@H]2O)c1cc(O)c(O)c(O)c1 [RAI-S-37, Corilagin]			496 M⁻¹ s⁻¹	0.54 ± 0.01 µM	0.000268 s⁻¹	
